Laboratory results taken from patent US9814754B2, “Combinations with a backbone-cyclized peptide” (POLYPHOR AG, priority 2012, dated 2017).
Square brackets hold non-standard residues; d marks the D form. dDab = NCC[C@@H](N)C(=O)O; Orn = NCCC[C@H](N)C(=O)O; Dab = NCC[C@H](N)C(=O)O

Tests used:
Type in all cases: in vivo
[1] = tested on: Pseudomonas aeruginosa clinical isolate PAX11045; assay: Murine pneumonia model, compound 1 in combination with ertapenem (Example 1)
Description: The efficacy and ED50 of the compound of formula (I) (“compound 1”) in combination with ertapenem was determined against Pseudomonas aeruginosa clinical isolate PAX11045 in a pneumonia model in mice. Colony counts in lung were determined at 20 hours post treatment.
(§1) Fresh overnight colonies of PAX11045 from a 5% Horse Blood Agar plate were suspended in 0.9% sterile saline to approximately 10^8 CFU/ml and further diluted to approximately 5×10^7 CFU/ml. Female mice (DBA/2, outbred, 18-22 g, Charles River) were anesthetized with 0.1 ml of Zoletil and inoculated via the nose with a pipette with 0.05 ml of the bacteria suspension containing approximately 10^6 CFU. 4 hours after inoculation, the mice were treated orally with 45 μl neurophen (20 mg ibuprofen/ml corresponding to approximately 30 mg/kg) as pain relief.
1 g of ertapenem (Invanz™, MSD Denmark Aps) was dissolved in 10 ml 0.9% sterile saline to a concentration of 100 mg/ml and further diluted with saline to 5 mg/ml. The mice were treated subcutaneously with 0.2 ml in the neck region with a single dose at 3 hours post infection corresponding to 50 mg/kg on the basis of a mean animal weight of 20 g.
The mice were treated subcutaneously with 0.2 ml in the neck region with a single dose at 4 hours post infection with a dose calculation based on a mean animal weight of 20 g.
(§2) Colony counts were determined post inoculation at 4 hours (untreated mice) and 24 hours (treated and vehicle-only treated mice). Immediately after the mice were sacrificed, the lungs were collected and frozen at −20° C. After thawing, the organs were homogenized in 1 ml 0.9% saline. Each sample was then 10 fold diluted in saline and 20 μl spots were applied on blood agar plates. All agar plates were incubated 18-24 hours at 35° C. in ambient air.
The CFU/ml in the inoculum was determined to 7.65 log10 CFU/ml corresponding to 6.35 log10 CFU/mouse.
At 4 hours after infection the mean log10 CFU/lung was 5.14 and the CFU level remained at a similar level after 24 hours in the vehicle-only group.

[2] = tested on: Pseudomonas aeruginosa clinical isolate PA9349; assay: Murine pneumonia model, compound 1 alone (Reference 2); conditions: for mean CFU level compared to the vehicle group: lungs
Description: Efficacy in Murine Pneumonia Model Against Pseudomonas aeruginosa PA9349 and Estimation of ED50
The efficacy and ED50 of the compound of formula (I) (“compound 1”) was determined against Pseudomonas aeruginosa clinical isolate PA9349 in a pneumonia model in mice. Colony counts in the lungs were determined at 18-20 hours post treatment.
as §1, with “PA9349” for “PAX11045”, “5×10^6” for “5×10^7”, “Zoletil (tiletamine+zolazepam)” for “Zoletil”, “5×10^5” for “10^6”
One vial containing 10 mg of active compound 1 was dissolved in 5 ml 0.9% sterile saline to a concentration of 2 mg/ml and was further 2-fold diluted with saline to 1, 0.5, 0.25, 0.125 and 0.06 mg/ml. The mice were treated subcutaneously with 0.2 ml in the neck region with a single dose at 4 hours post infection with a dose calculation based on a mean animal weight of 20 g. As positive control colistin was used in the same manner with a fixed dose of 40 mg/kg.
as §2, with “10-fold” for “10 fold”, “18-48” for “18-24”
The CFU/ml in the inoculum was determined to 7.29 log10 CFU/ml corresponding to 5.98 log10 CFU/mouse.
At 4 hours after infection the mean log10 CFU/lung was 3.47 and the CFU level increased to 4.92 at […] post inoculation in the vehicle-only group.

[3] = tested on: Pseudomonas aeruginosa clinical isolate PA9349; assay: Murine pneumonia model, compound 1 in combination with ciprofloxacin (Example 3)
Description: Colony counts in lung were determined at 20 hours post treatment.
Fresh overnight colonies of PA9349 from a 5% Horse Blood Agar plate were suspended in 0.9% sterile saline to approximately 10^8 CFU/ml and further diluted to approximately 10^7 CFU/ml. Female mice (C57BL/6 […], outbred, 20-25 g, Hellenic Pasteur Institute) were anesthetized with ether and inoculated via the nose with a pipette with 0.05 ml of the bacteria suspension containing approximately 10^6 CFU. After inoculation, mice were treated with paracetamol suppositories as a pain relief.
The mice were treated subcutaneously with 0.2 ml in the neck region with a single dose at 3 hours post infection corresponding to 20 mg/kg on the basis of a mean animal weight of 20 g.
1 vial was further diluted with saline to 1, 0.8 and 0.4 mg/ml. The mice were treated subcutaneously with 0.25 ml (25 mg/kg dose) or 0.2 ml (for all other doses) in the neck region with a single dose at 4 hours post infection with a dose calculation based on a mean animal weight of 20 g.
as §2

[4] = in presence of 50 mg/kg ertapenem, murine lungs
[5] = compound 1 alone, s.c., murine lungs
[6] = in presence of 20 mg/kg ciprofloxacin, murine lungs

cyclo(TWI[Dab][Orn][dDab][Dab]W[Dab][Dab]AS[dP]P) [compound 1]
effect on bacterial loads ([1]; 2.75 mg/kg alone, lung, p<0.001): significant effect on reducing the bacterial loads | CFU levels compared to vehicle treatment ([1]; combination of compound 1 (dose series) and ertapenem 50 mg/kg, lung, p<0.01-p<0.001): concentration dependent significant reduction of the CFU levels | Top level ([1]; compound 1 s.c. in presence of 50 mg/kg ertapenem (s.c., 3 h post infection), murine lungs): −0.34 log10 CFU/ml | 1 log killing dose [1, 4]: 1.14 mg/kg | 2 log killing dose [1, 4]: 1.48 mg/kg | Bottom level [1, 4]: −2.32 log10 CFU/ml | Emax [1, 4]: 1.98 log10 CFU/ml | Static dose [1, 4]: 0.63 mg/kg | ED50 ([1]; in presence of fixed dose of 50 mg/kg ertapenem, murine lungs): 1.24 mg/kg | mean CFU level compared to the vehicle group ([2]; 10 mg/kg treatment group): reduction of the mean CFU level | mean CFU level compared to the vehicle group ([2]; 20 mg/kg treatment group): significant reduction | Top level ([2]; compound 1 alone, s.c. single dose 4 h post infection, murine lungs): 1.59 log10 CFU/ml | Bottom level [2, 5]: −0.80 log10 CFU/ml | Emax [2, 5]: −2.4 log10 CFU/ml | Static dose [2, 5]: 9.15 mg/kg | ED50 ([2]; compound 1 alone, s.c., murine lungs, sigmoidal dose-response model (variable slope)): 7.35 mg/kg | effect on bacterial loads ([3]; 5.5 mg/kg alone, lung, p<0.001): significant effect on reducing the bacterial loads | CFU levels compared to vehicle treatment ([3]; combination of compound 1 at 1.88-25 mg/kg and ciprofloxacin 20 mg/kg, lung, p<0.001): significant reduction of the CFU levels | Top level ([3]; compound 1 s.c. in presence of 20 mg/kg ciprofloxacin (s.c., 3 h post infection), murine lungs): −0.21 log10 CFU/ml | 1 log killing dose [3, 6]: 0.45 mg/kg | 2 log killing dose [3, 6]: 1.00 mg/kg | 3log killing dose [3, 6]: 1.82 mg/kg | Bottom level [3, 6]: −4.17 log10 CFU/ml | Emax [3, 6]: 3.96 log10 CFU/ml | ED50 ([3]; in presence of fixed dose of 20 mg/kg ciprofloxacin, murine lungs): 1.55 mg/kg
